Numbered stars: 1 amine (or outer) side, 2 acyl side, 3 side chain; on linkers, the order of the positions; unused ones are H or OH. Bridge positions count the residues as written; N and C are the ends. Square brackets hold non-standard residues; d marks the D form. Peptide text beside a SMILES is read from it. ξ: configuration not given here. ξαMeNle(6-ylidene) = CC(CCCC=[*:3])(N[*:1])C(=O)[*:2]; Nle = CCCC[C@H](N)C(=O)O
Assays:
Assay type in all cases: cell-based
[1] = tested on: NFκB luciferase reporter in Colo320 cells; assay: NFκB reporter gene transcriptional assay; details: selectivity control
Method: Luciferase activity was measured using the Dual Luciferase Reporter Assay System (Promega) as previously described (Sukhdeo, K. et al. Proc Natl Acad Sci USA 104, 7516-21 (2007)). To measure Wnt or NFκB reporter activity, Colo320 cells were transfected with TOP-FLASH, FOP-FLASH plasmid (Millipore Corporation) or NFκB luciferase reporter (Stratagene), along with an internal Renilla control plasmid (hRL-null). Transfection was accomplished using FuGENE (Roche) according to the manufacturer's protocol. The results were normalized to control Renilla activity. The reported data represent the average of three independent transfection experiments performed in triplicate. See results in FIG. 9, FIG. 10.

MM1S cells [2] = assay: Cell proliferation, [3H]thymidine uptake; details: 5 μM
Method: (§1) Cell proliferation assays were performed as described (Sukhdeo, K. et al. Proc Natl Acad Sci USA 104, 7516-21 (2007)). Cell viability was measured using the CellTiter-Glo assay (Promega) according to the manufacturer's instructions. Apoptosis was evaluated by activated caspase-3 and PARP western blotting. See results in FIG. 3A-FIG. 3F, FIG. 13, and FIG. 20.

Colo320 cells = assay: Cell proliferation, [3H]thymidine uptake; details: 5 μM, 24 h
Method: as §1

[3] = molecular target: T1, β-catenin-BCL9/B9L complexes (Homo sapiens, UniProt P35222); assay: Anti-BCL9 and B9L co-immunoprecipitation (disruption of native complexes); details: cellular treatment
T1 construct: SAH-BCL9B disrupts native β-catenin-BCL9/B9L complexes; endogenous in cells; Colo320 or MM1S by context
T1 sequence (P35222 2-781): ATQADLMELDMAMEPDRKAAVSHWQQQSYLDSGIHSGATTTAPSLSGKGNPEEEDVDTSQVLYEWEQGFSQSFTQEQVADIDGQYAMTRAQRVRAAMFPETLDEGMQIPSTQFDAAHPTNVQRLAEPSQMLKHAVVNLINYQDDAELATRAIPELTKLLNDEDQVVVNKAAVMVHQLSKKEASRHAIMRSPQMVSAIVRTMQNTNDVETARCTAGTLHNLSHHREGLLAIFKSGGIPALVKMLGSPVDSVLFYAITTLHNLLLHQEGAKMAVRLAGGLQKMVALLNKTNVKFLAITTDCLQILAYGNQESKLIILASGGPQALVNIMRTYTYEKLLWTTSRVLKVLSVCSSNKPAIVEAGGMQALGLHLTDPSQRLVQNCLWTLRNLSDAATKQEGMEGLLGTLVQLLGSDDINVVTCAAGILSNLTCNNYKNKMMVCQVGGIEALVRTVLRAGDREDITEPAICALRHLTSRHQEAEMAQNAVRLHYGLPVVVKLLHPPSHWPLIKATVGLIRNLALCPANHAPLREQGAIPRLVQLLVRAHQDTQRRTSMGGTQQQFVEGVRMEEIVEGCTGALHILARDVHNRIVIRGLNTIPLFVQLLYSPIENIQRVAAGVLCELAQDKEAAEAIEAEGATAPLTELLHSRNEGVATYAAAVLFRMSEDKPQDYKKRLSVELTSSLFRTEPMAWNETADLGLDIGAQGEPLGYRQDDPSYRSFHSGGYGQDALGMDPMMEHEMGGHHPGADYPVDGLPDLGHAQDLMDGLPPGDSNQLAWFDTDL
Description: Western blotting, performed as described (Sukhdeo, K. et al. Proc Natl Acad Sci USA 104, 7516-21 (2007)), employed the following primary antibodies: BCL9 (6109) (Mani, M. et al. Cancer Res 69, 7577-86 (2009)), BCL9 (ab37305, Abcam), B9L (AF4967, R&D Systems), β-catenin (CAT5-H10, Zymed), FITC (ab19224, Abcam), Actin-HRP (C-11, Santa Cruz), Caspase3 (#9662, Cell Signaling), IκBα (#9242, Cell signaling), PARP (#9542, Cell Signaling), E-cadherin (#3195, Cell Signaling), and Lamin B (sc-6217, Santa Cruz). Horseradish peroxidase conjugated secondary antibodies were purchased from Santa Cruz and SouthernBiotech. Co-immunoprecipitation was performed as described (Walensky, L. D. et al. Science 305, 1466-70 (2004)). Briefly, cells were lysed in 50 mM Tris, 150 mM NaCl, and 1% CHAPS buffer containing protease and phosphatase inhibitors. Lysates were precleared with Protein A/G PLUS-agarose beads (Santa Cruz Biotechnologies) for 3 hours followed by overnight incubation at 4° C. with the respective antibodies. Agarose A/G beads were then added for 4 h, pelleted, and washed as described (Walensky, L. D. et al. Science 305, 1466-70 (2004)). See results in FIG. 1D, FIG. 1H, FIG. 2A, FIG. 8.

[4] = tested on: Wnt target genes in MM1S cells; assay: qRT-PCR of Wnt/β-catenin target genes; details: MM1S (FIG. 19A), 10 μM
Method: To measure the effects of vehicle, SAH-BCL9B, and SAH-BCL9MUT on the expression of Wnt/β-catenin target genes, including VEGF, in Colo320 (FIG. 18) and MM1S (FIG. 19) cell lines, quantitative PCR (qRT-PCR) analysis was performed. RNA was extracted with TRIzol Reagent (Invitrogen) according to the manufacturer's protocol. Total RNA (2 μg) was reverse transcribed (SuperScript VILO cDNA synthesis kit, Invitrogen) and qPCR was performed using an Applied Biosynthesis 7500 Real-time PCR system. PCR primers were designed as below: […]
Analysis of target genes was conducted in quadruplicate using POWER SYBR Green Master Mix (Applied Biosystems) as previously described (M. Mani et al., Cancer Res 69, 7577 (2009)). Transcripts levels were normalized to β-actin expression. These experiments were repeated three times.

[5] = tested on: VEGF secretion by Colo320 cells; assay: VEGF ELISA; details: 5 μM, 24 h
Method: (§2) VEGF ELISA was performed as previously described (Mani, M. et al. Cancer Res 69, 7577-86 (2009)). Briefly, cells (1×10^6) were treated with vehicle and SAH-BCL9 peptides (5 μM) for 24 h. VEGF levels in the supernatant were then measured according to the manufacturer's ELISA protocol (DuoSet, R&D Systems).

[6] = tested on: VEGF secretion by MM1S cells; assay: VEGF ELISA; details: 5 μM, 24 h
Method: as §2

MM1S cells [7] = assay: Combination with doxorubicin, 3H-thymidine incorporation; details: increasing concentrations of Dox
Method: To test whether the anti-proliferative effect of SAH-BCL9B could synergize with other agents commonly used to treat MM or CRC, combination treatment studies were conducted. Indeed, the cytotoxic effects of 5-fluorouracil on CRC cells and of doxorubicin on MM cells were enhanced by SAH-BCL9B, but not by vehicle or the mutant peptide. See results in FIG. 21.

Compound	effect on NFκB reporter activity [1]	proliferation (MM1S cells [2])	proliferation (Colo320 cells)	disruption of the association of β-catenin with BCL9 and B9L [3]	mRNA levels of VEGF, c-MYC, LGR5, LEF1, and AXIN2 [4]	VEGF secretion [5]	VEGF secretion [6]	enhancement of anti-tumor activity of doxorubicin (MM1S cells [7])
CCCC[C@H](NC(=O)[C@H](CCCNC(=N)N)NC(=O)[C@H](CCC(N)=O)NC(=O)[C@@H](NC(=O)C1(C)CCCC=CCCCC(C)(NC(=O)[C@H](CC(C)C)NC(=O)[C@H](CO)NC(=O)[C@H](CCCNC(=N)N)NC(=O)[C@H](CCC(=O)O)NC(=O)[C@H](CCCNC(=N)N)NC(=O)[C@H](Cc2c[nH]cn2)NC(=O)[C@H](CCC(=O)O)NC(=O)[C@H](CC(C)C)NC(=O)[C@H](CCC(N)=O)NC(=O)[C@H](CCC(=O)O)NC(=O)[C@H](CCC(N)=O)NC(=O)[C@H](CO)NC(=O)[C@H](CC(C)C)NC(C)=O)C(=O)N[C@@H]([C@@H](C)O)C(=O)N[C@@H](CC(C)C)C(=O)N[C@@H](CCCNC(=N)N)C(=O)N1)[C@@H](C)CC)C(=O)N[C@@H](CC(C)C)C(=O)N[C@@H](Cc1ccccc1)C(N)=O (stereo partly drawn) [SAH-BCL9B] (Ac-LSQEQLEHRERSL[ξαMeNle(6-ylidene)]TLR[ξαMeNle(6-ylidene)]IQR[Nle]LF-NH2; staple 14-18)	no effect	reduced the proliferation	reduced the proliferation	dose-responsively disrupted	dose-responsively reduced	decreased VEGF secretion	decreased VEGF secretion	significantly enhanced the anti-tumor activity
SAH-BCL9B(R359E): SEQ ID NO: 7: LSQEQLEHEERSLXTLRXIQRBLF; reverse polarity point mutant, negative control of SAH-BCL9B	–	–	–	no effect	–	–	–	–
